Literature values in patent publication US6470305B1, “Chemical analysis by morphological similarity” (priority 1998, dated 2002).

Target: CDK2 (Homo sapiens, UniProt P24941)
Conditions: weak inhibitor; value from Kim et al., Prog Cell Cycle Res (1996); read-out: IC50 versus CDK2

**Q.** With `CC(C)=CCNc1ncnc2nc[nH]c12` [IPA, isopentenyl adenine] as the compound, how does the IC50 read?
**A.** The IC50 was 50 µM.
